Experimental data: the supplement of paper PMC11061612

Columns and labels:
Assay in all cases: combination Emax (second highest fraction inhibited in the dose matrix, 72 h); higher = more inhibition; extreme values may be limits of the assay
U251 (Low Grade Glioma) = system: U251 (Low Grade Glioma)
Method in brief: (§1)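 Cell lines grown in DMEM/F12 or RPMI with 10% FBS were plated in 1536-well plates and held 24 hours at 37°C, 5% CO2 before 72 hours of exposure to two-drug dose matrices, with DMSO typically at 0.2%. CellTiter-Glo 2.0 luminescence gave viability, which was converted to inhibition. Vehicle wells were set to 0 and blank wells to 1. Combination Emax is the second-highest inhibition in the matrix, and Bliss excess is the observed combination effect minus the expected EA + EB − EA·EB, where EA and EB are the single-agent effects.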

[1] = system: KCL-22 (Chronic Myelogenous Leukemia)
Method in brief: as §1

[2] = system: CAMA-1 (Breast Carcinoma)
Method in brief: as §1

CHP-212 (Neuroblastoma) = system: CHP-212 (Neuroblastoma)
Method in brief: as §1

[3] = system: SW1417 (Colorectal Carcinoma)
Method in brief: as §1

ES8 (Ewing's Sarcoma) = system: ES8 (Ewing's Sarcoma)
Method in brief: as §1

[4] = system: NCI-H1792 (Lung Adenocarcinoma)
Method in brief: as §1

NCI-H2818 (Mesothelioma) = system: NCI-H2818 (Mesothelioma)
Method in brief: as §1

[5] = system: SW837 (Colorectal Carcinoma)
Method in brief: as §1

[6] = system: HL-60 (Acute Myeloid Leukemia)
Method in brief: as §1

[7] = system: MFM-223 (Breast Carcinoma)
Method in brief: as §1

[8] = system: P12-ICHIKAWA (T-Lymphoblastic Leukemia)
Method in brief: as §1

[9] = system: HDQ-P1 (Breast Carcinoma)
Method in brief: as §1

[10] = system: MOLT-16 (T-Lymphoblastic Leukemia)
Method in brief: as §1

[11] = system: BFTC-905 (Bladder Carcinoma)
Method in brief: as §1

[12] = system: K-562 (Chronic Myelogenous Leukemia)
Method in brief: as §1

[13] = system: PANC-08-13 (Pancreatic Carcinoma)
Method in brief: as §1

[14] = system: GR-ST (B-Lymphoblastic Leukemia)
Method in brief: as §1

[15] = system: MKN28 (Gastric Carcinoma)
Method in brief: as §1

[16] = system: TOV-112D (Ovarian Carcinoma)
Method in brief: as §1

Row | Compound | combination Emax (U251 (Low Grade Glioma)) | combination Emax [1] | combination Emax [2] | combination Emax (CHP-212 (Neuroblastoma)) | combination Emax [3] | combination Emax (ES8 (Ewing's Sarcoma)) | combination Emax [4] | combination Emax (NCI-H2818 (Mesothelioma)) | combination Emax [5] | combination Emax [6] | combination Emax [7] | combination Emax [8] | combination Emax [9] | combination Emax [10] | combination Emax [11] | combination Emax [12] | combination Emax [13] | combination Emax [14] | combination Emax [15] | combination Emax [16]
1 | CN(CCO)CC[C@H](CSc1ccccc1)Nc1ccc(S(=O)(=O)NC(=O)c2ccc(N3CCC([C@@H](O)c4ccccc4-c4ccc(Cl)cc4)CC3)cc2)cc1S(=O)(=O)C(F)(F)F [AZD4320] + CN(C)CCCOc1ccc(-c2ccc3ncc4c(c3c2)n(C2CCOCC2)c(=O)n4C)cn1 [AZD0156] (first compound max 1 µM, 7x7, partner max 1 µM) | 0.185 | 0.361 | 0.117 | 0.278 | 0.742 | 0.64 | 0.12 | 0.268 | 0.191 | 0.898 | 0.199 | 1 | 0.465 | 0.989 | 0.15 | 0.345 | 0.352 | 0.175 | 0.0805 | 0.222
2 | Cn1cnc2c(F)c(Nc3ccc(Br)cc3Cl)c(C(=O)NOCCO)cc21 [Selumetinib] + CCN(CCO)CCCOc1ccc2c(Nc3cc(CC(=O)Nc4cccc(F)c4)[nH]n3)ncnc2c1 [AZD2811] (first compound max 10 µM, 7x7, partner max 1 µM) | 0.268 | 0.593 | 0.22 | 0.972 | 0.559 | 0.996 | 0.423 | 0.168 | 0.554 | 0.918 | 0.17 | 1 | 0.393 | 1 | 0.781 | 0.32 | 0.22 | 0.316 | 0.191 | 0.349
3 | CN(CCO)CC[C@H](CSc1ccccc1)Nc1ccc(S(=O)(=O)NC(=O)c2ccc(N3CCC([C@@H](O)c4ccccc4-c4ccc(Cl)cc4)CC3)cc2)cc1S(=O)(=O)C(F)(F)F [AZD4320] + C=CCn1c(=O)c2cnc(Nc3ccc(N4CCN(C)CC4)cc3)nc2n1-c1cccc(C(C)(C)O)n1 [AZD1775] (first compound max 1 µM, partner max 1 µM) | 0.289 | 0.937 | 0.182 | 0.809 | 0.853 | 0.962 | 0.696 | 0.371 | 0.461 | 0.956 | 0.383 | 1 | 0.911 | 1 | 0.759 | 0.871 | 0.492 | 0.765 | 0.536 | 0.496
4 | CC1(C)CCC(CN2CCN(c3ccc(C(=O)NS(=O)(=O)c4ccc(NCC5CCOCC5)c([N+](=O)[O-])c4)c(Oc4cnc5[nH]ccc5c4)c3)CC2)=C(c2ccc(Cl)cc2)C1 [Venetoclax] + C=CCn1c(=O)c2cnc(Nc3ccc(N4CCN(C)CC4)cc3)nc2n1-c1cccc(C(C)(C)O)n1 [AZD1775] (first compound max 1 µM, partner max 1 µM) | 0.297 | 0.943 | 0.38 | 0.769 | 0.505 | 0.94 | 0.828 | 0.331 | 0.453 | 0.899 | 0.457 | 0.966 | 0.532 | 1 | 0.799 | 0.892 | 0.328 | 0.813 | 0.501 | 0.393
5 | COc1nnc2ccc(N3CCC(c4ccc(OCCN5CCN(C)C(=O)[C@H]5C)cc4)CC3)nn12 [AZD5153] + Cc1c2c(nn1C)CSCc1cc(n(C)n1)CSc1cc(c3ccccc3c1)OCCCc1c(C(=O)O)n(C)c3c-2c(Cl)ccc13 [AZD5991] (first compound max 1 µM, 7x7, partner max 1 µM) | 0.65 | 0.902 | 0.951 | 1 | 0.459 | 0.891 | 0.877 | 0.441 | 0.571 | 1 | 0.587 | 1 | 0.412 | 1 | 0.746 | 0.5 | 0.825 | 0.798 | 0.462 | 0.986
6 | CC1(C)CCC(CN2CCN(c3ccc(C(=O)NS(=O)(=O)c4ccc(NCC5CCOCC5)c([N+](=O)[O-])c4)c(Oc4cnc5[nH]ccc5c4)c3)CC2)=C(c2ccc(Cl)cc2)C1 [Venetoclax] + C[C@@H]1COCCN1C2=NC(=NC(=C2)C3(CC3)[S@](=N)(=O)C)C4=C5C=CNC5=NC=C4 [AZD6738] (first compound max 1 µM, 7x7, partner max 10 µM) | 0.518 | 0.951 | 0.41 | 0.792 | 0.391 | 0.934 | 0.725 | 0.394 | 0.348 | 0.933 | 0.752 | 0.986 | 0.399 | 1 | 0.835 | 0.788 | 0.421 | 0.762 | 0.488 | 0.656
7 | CC(=O)c1c(C)c2cnc(Nc3ccc(N4CCNCC4)cn3)nc2n(C2CCCC2)c1=O [Palbociclib] + CC1(C)CCC(CN2CCN(c3ccc(C(=O)NS(=O)(=O)c4ccc(NCC5CCOCC5)c([N+](=O)[O-])c4)c(Oc4cnc5[nH]ccc5c4)c3)CC2)=C(c2ccc(Cl)cc2)C1 [Venetoclax] (first compound max 10 µM, 7x7, partner max 1 µM) | 0.153 | 0.513 | 0.142 | 0.481 | 0.147 | 0.461 | 0.465 | 0.203 | 0.0079 | 0.736 | 0.346 | 0.671 | 0.109 | 0.985 | 0.326 | 0.0413 | 0.157 | 0.715 | 0.0507 | 0.443
8 | COc1nnc2ccc(N3CCC(c4ccc(OCCN5CCN(C)C(=O)[C@H]5C)cc4)CC3)nn12 [AZD5153] + CC1(C)CCC(CN2CCN(c3ccc(C(=O)NS(=O)(=O)c4ccc(NCC5CCOCC5)c([N+](=O)[O-])c4)c(Oc4cnc5[nH]ccc5c4)c3)CC2)=C(c2ccc(Cl)cc2)C1 [Venetoclax] (first compound max 1 µM, 7x7, partner max 1 µM) | 0.449 | 0.666 | 0.456 | 0.885 | 0.463 | 0.719 | 0.676 | 0.268 | 0.551 | 0.99 | 0.305 | 0.932 | 0.325 | 1 | 0.633 | 0.437 | 0.625 | 0.788 | 0.446 | 0.588
9 | NC1(C(=O)N[C@@H](CCO)c2ccc(Cl)cc2)CCN(c2ncnc3[nH]ccc23)CC1 [Capivasertib] + Cn1cnc2c(F)c(Nc3ccc(Br)cc3Cl)c(C(=O)NOCCO)cc21 [Selumetinib] (first compound max 10 µM, 7x7, partner max 10 µM) | 0.494 | 0.604 | 0.693 | 0.946 | 0.586 | 0.533 | 0.504 | 0.318 | 0.603 | 0.874 | 0.894 | 0.748 | 0.596 | 0.805 | 0.746 | 0.425 | 0.405 | 0.678 | 0.241 | 0.313
10 | Cc1c2c(nn1C)CSCc1cc(n(C)n1)CSc1cc(c3ccccc3c1)OCCCc1c(C(=O)O)n(C)c3c-2c(Cl)ccc13 [AZD5991] + Cc1cc2ncnn2cc1Nc1ncc2c(n1)n(C1CCOCC1)c(=O)n2C [AZD7648] (first compound max 1 µM, 7x7, partner max 10 µM) | 0.229 | 0.94 | 0.742 | 0.831 | 0.297 | 0.455 | 0.441 | 0.48 | 0.128 | 1 | 0.288 | 1 | 0.257 | 1 | 0.211 | 0.182 | 0.238 | 0.464 | 0.25 | 0.492
11 | CN(CCO)CC[C@H](CSc1ccccc1)Nc1ccc(S(=O)(=O)NC(=O)c2ccc(N3CCC([C@@H](O)c4ccccc4-c4ccc(Cl)cc4)CC3)cc2)cc1S(=O)(=O)C(F)(F)F [AZD4320] + CCN(CCO)CCCOc1ccc2c(Nc3cc(CC(=O)Nc4cccc(F)c4)[nH]n3)ncnc2c1 [AZD2811] (first compound max 1 µM, 7x7, partner max 1 µM) | 0.42 | 0.556 | 0.616 | 0.758 | 0.759 | 1 | 0.113 | 0.191 | 0.508 | 0.958 | 0.693 | 1 | 0.849 | 1 | 0.856 | 0.333 | 0.422 | 0.151 | 0.184 | 0.485
12 | Cc1c2c(nn1C)CSCc1cc(n(C)n1)CSc1cc(c3ccccc3c1)OCCCc1c(C(=O)O)n(C)c3c-2c(Cl)ccc13 [AZD5991] + C[C@@H](Nc1cc(F)cc(F)c1)c1cc(C(=O)N(C)C)cc2c(=O)cc(N3CCOCC3)oc12 [AZD8186] (first compound max 1 µM, 7x7, partner max 3 µM) | 0.226 | 0.87 | 0.98 | 0.882 | 0.275 | 0.613 | 0.441 | 0.387 | 0.188 | 1 | 0.258 | 0.964 | 0.237 | 1 | 0.289 | 0.389 | 0.263 | 0.257 | 0.232 | 0.35
